Laboratory results: the supplement of paper PMC10307832

Columns and labels:
Assay in all cases: relative viability (nuclei count vs DMSO), 5 days (fraction); higher = more cells survive
Erlotinib + Alpelisib = compound: C#Cc1cccc(Nc2ncnc3cc(OCCOC)c(OCCOC)cc23)c1 [Erlotinib] + Cc1nc(NC(=O)N2CCC[C@H]2C(N)=O)sc1-c1ccnc(C(C)(C)C(F)(F)F)c1 [Alpelisib] (partner 2 µM)
How it was run: (§1)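 One day after seeding in 1536-well plates, lung cancer cell lines were dosed by pin tool. Dosing was either single-drug or a fixed anchor-drug dose plus five library-drug doses (not always all listed) in √10 steps. After 5 days, nuclei were stained in one fix-and-stain step and counted on 4× images, and relative viability is the nuclei count of treated wells over that of vehicle wells, given as the median of duplicate plates.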

Erlotinib + Vorinostat = compound: C#Cc1cccc(Nc2ncnc3cc(OCCOC)c(OCCOC)cc23)c1 [Erlotinib] + O=C(CCCCCCC(=O)Nc1ccccc1)NO [Vorinostat] (partner 1 µM)
How it was run: as §1

AT9283 + Navitoclax = compound: O=C(Nc1c[nH]nc1-c1nc2ccc(CN3CCOCC3)cc2[nH]1)NC1CC1 [AT9283] + CC1(C)CCC(c2ccc(Cl)cc2)=C(CN2CCN(c3ccc(C(=O)NS(=O)(=O)c4ccc(N[C@H](CCN5CCOCC5)CSc5ccccc5)c(S(=O)(=O)C(F)(F)F)c4)cc3)CC2)C1 [Navitoclax] (partner 0.5 µM)
How it was run: as §1

AT9283 + OSI-027 = compound: O=C(Nc1c[nH]nc1-c1nc2ccc(CN3CCOCC3)cc2[nH]1)NC1CC1 [AT9283] + COc1cccc2cc(-c3nc([C@H]4CC[C@H](C(=O)O)CC4)n4ncnc(N)c34)[nH]c12 [OSI-027] (partner 0.5 µM)
How it was run: as §1

AT9283 + Pemetrexed = compound: O=C(Nc1c[nH]nc1-c1nc2ccc(CN3CCOCC3)cc2[nH]1)NC1CC1 [AT9283] + Nc1nc2[nH]cc(CCc3ccc(C(=O)N[C@@H](CCC(=O)O)C(=O)O)cc3)c2c(=O)[nH]1 [Pemetrexed] (partner 0.2 µM)
How it was run: as §1

| Cell Line | relative viability (Erlotinib + Alpelisib; first compound 0.02 µM) | relative viability (Erlotinib + Alpelisib; first compound 0.2 µM) | relative viability (Erlotinib + Alpelisib; first compound 0.6325 µM) | relative viability (Erlotinib + Alpelisib; first compound 2 µM) | relative viability (Erlotinib + Vorinostat; first compound 0.02 µM) | relative viability (Erlotinib + Vorinostat; first compound 0.6325 µM) | relative viability (Erlotinib + Vorinostat; first compound 2 µM) | relative viability (AT9283 + Navitoclax; first compound 0.003 µM) | relative viability (AT9283 + Navitoclax; first compound 0.03 µM) | relative viability (AT9283 + Navitoclax; first compound 0.09487 µM) | relative viability (AT9283 + Navitoclax; first compound 0.3 µM) | relative viability (AT9283 + OSI-027; first compound 0.003 µM) | relative viability (AT9283 + OSI-027; first compound 0.03 µM) | relative viability (AT9283 + OSI-027; first compound 0.09487 µM) | relative viability (AT9283 + OSI-027; first compound 0.3 µM) | relative viability (AT9283 + Pemetrexed; first compound 0.003 µM) | relative viability (AT9283 + Pemetrexed; first compound 0.03 µM) | relative viability (AT9283 + Pemetrexed; first compound 0.09487 µM) | relative viability (AT9283 + Pemetrexed; first compound 0.3 µM) | relative viability (Erlotinib + Vorinostat; first compound 0.2 µM) |
| --- | --- | --- | --- | --- | --- | --- | --- | --- | --- | --- | --- | --- | --- | --- | --- | --- | --- | --- | --- | --- |
| HCC-15 | 0.897 | 0.844 | 0.913 | 0.77 | 0.876 | 0.868 | 0.676 | 0.685 | 0.515 | 0.246 | 0.148 | 0.61 | 0.412 | 0.153 | 0.157 | 0.223 | 0.208 | 0.143 | 0.159 |  |
| HCC-44 | 0.821 | 0.698 | 0.909 | 0.707 | 1.21 | 1.13 | 1.16 | 0.897 | 0.787 | 0.823 | 0.257 | 0.466 | 0.555 | 0.185 | 0.21 | 0.629 | 0.666 | 0.564 | 0.694 | 1.13 |
| HCC-78 | 0.353 | 0.337 | 0.305 | 0.186 | 0.428 | 0.36 | 0.335 | 0.721 | 0.511 | 0.169 | 0.145 | 0.519 | 0.304 | 0.271 | 0.276 | 0.905 | 0.896 | 0.924 | 0.919 | 0.437 |
| IA-LM | 0.984 |  | 0.7 | 0.789 | 0.905 |  | 0.744 | 0.952 | 0.372 | 0.112 | 0.0779 |  |  |  |  |  |  |  |  | 0.72 |
| LCLC-103H | 0.882 | 0.953 | 0.994 | 0.91 | 0.837 | 0.796 | 0.685 |  |  |  |  | 0.396 | 0.451 | 0.415 | 0.276 | 0.447 | 0.411 | 0.343 | 0.324 | 0.732 |
| NCI-H358 | 0.885 | 0.693 | 0.474 | 0.358 | 0.693 | 0.419 | 0.221 |  |  |  |  | 0.899 | 0.186 | 0.0868 | 0.0708 | 0.164 | 0.124 | 0.111 | 0.112 | 0.292 |
| NCI-H522 |  |  |  |  | 0.949 | 0.869 | 0.762 |  |  |  |  | 0.665 | 0.57 | 0.549 | 0.567 | 0.949 | 0.78 | 0.746 | 0.499 | 0.832 |
| NCI-H650 | 1.22 | 1.25 | 1.11 | 1.06 | 0.487 | 0.59 | 0.449 |  |  |  |  | 0.519 | 0.528 | 0.379 | 0.169 | 0.939 | 0.864 | 0.53 | 0.153 | 0.496 |
| NCI-H661 | 0.545 | 0.556 | 0.782 | 0.426 | 0.834 | 0.775 | 0.646 |  |  |  |  | 0.767 | 0.529 | 0.313 | 0.344 | 0.932 | 0.449 | 0.405 | 0.385 | 0.758 |
| NCI-H727 | 0.612 | 0.48 | 0.459 | 0.463 | 1.29 | 1.03 | 1.01 | 0.532 | 0.235 | 0.154 | 0.11 | 0.657 | 0.483 | 0.487 | 0.324 |  |  |  |  | 1.24 |
| NCI-H1299 | 1.07 | 1.03 | 1.1 | 1.03 |  |  |  | 1.09 | 0.927 | 0.363 | 0.304 |  |  |  |  |  |  |  |  |  |
| NCI-H1563 | 0.931 |  | 0.952 | 0.799 |  |  |  |  |  |  |  | 0.769 | 0.748 | 0.645 | 0.525 | 0.751 | 0.66 | 0.559 | 0.513 |  |
| NCI-H1623 |  |  |  |  |  |  |  |  |  |  |  | 0.438 | 0.448 | 0.358 | 0.381 |  |  |  |  |  |
| NCI-H1648 |  |  |  |  | 0.528 | 0.501 | 0.278 |  |  |  |  | 0.277 | 0.259 | 0.283 | 0.246 | 0.579 | 0.553 | 0.493 | 0.386 | 0.304 |
| NCI-H1650 |  |  |  |  | 0.556 | 0.488 | 0.411 | 1.34 | 1 | 0.29 | 0.232 | 0.838 | 0.575 | 0.357 | 0.227 | 0.358 | 0.362 | 0.361 | 0.28 | 0.559 |
| NCI-H1703 | 0.367 | 0.321 | 0.352 | 0.296 |  |  |  | 1.36 | 0.19 | 0.216 | 0.176 |  |  |  |  |  |  |  |  |  |
| NCI-H1792 |  | 0.595 | 0.77 | 0.49 |  |  |  | 0.637 | 0.569 | 0.248 | 0.187 | 0.727 | 0.868 | 0.742 | 0.404 | 0.783 | 0.945 | 0.805 | 0.167 |  |
| NCI-H2342 |  |  |  |  | 0.615 | 0.801 | 0.789 |  |  |  |  | 0.605 | 0.576 | 0.508 | 0.413 | 0.793 | 0.619 | 0.603 | 0.387 | 0.851 |
| SW 900 |  |  |  |  | 0.683 | 0.523 | 0.448 |  |  |  |  | 0.718 | 0.703 | 0.388 | 0.229 | 0.326 | 0.468 | 0.423 | 0.32 | 0.439 |
